Test results reported in US12108762B2, “Methods of controlling crop pests using aromatic amide insect repellents, methods of making aromatic amide insect repellents, and novel aromatic amide insect repellents” (priority 2020, dated 2024).

Assays:
Drosophila melanogaster [1] = assay: Habituation assay (prior exposure, then olfactory and gustatory screens); type: in vivo; conditions: for habituation of fruit flies, overall (olfactory and gustatory assays): post-exposure; for repellency after prior exposure, gustatory assay: prior exposure 25% by weight, gustatory screen at 5 mM
Method: In the gustatory assay, the consumption of sugar (from a solution in a gel) treated at varying concentrations of the present repellent compounds was compared to the consumption of control-treated sugar. For the habituation assay, flies were tested over repeated exposures to the present repellent compounds to measure changes in behavioral preference for the compounds.
Flies were continuously monitored throughout their lifetime. In this assay, 3- to 5-day-old flies (70 male and 70 female) were selected and transferred to an empty fly food container 320 (FIG. 9). The polystyrene foam cap 310 was treated with 50 μL of 25% by weight of the present aromatic amide repellent in DMSO. A thin porous material 330 was placed around the treated cap 310, with a gap between the cap 310 and the material 330 so that the flies cannot touch the treated cap 310, but can only smell it. […] After the 20-hour period, the flies were screened in the olfactory assay and gustatory assays above. In the olfactory assay, the number of flies in the trap, the number of flies outside the trap, and the number of flies that died outside the trap were counted as described herein, and in the gustatory assay, the color of the flies' abdomens were determined and counted, as described herein.
(§1) The different assays assigned results as follows. For the single-choice olfactory assay, the numbers of flies were counted according to (1) those that entered the trap, (2) those that stayed outside the trap and lived, and (3) those that died outside the trap. For the two-choice olfactory assay, the numbers of flies were counted according to (1) those that entered the control trap, (2) those that entered the trap containing the repellent, (3) those that stayed outside of both traps and lived, and (4) those that died outside the traps. For the gustatory assay, the numbers of flies were counted according to those that had (1) a red-colored abdomen, (2) a blue-colored abdomen, (3) a purple abdomen, and (4) no added color to their abdomen. A nonparametric Mann-Whitney U test was used to compare the statistical differences between assays using DEET and the same assays using one of the present repellents for all trials.

Gr33a = target: T1, Gr33a (Drosophila melanogaster, UniProt Q9VKA5); assay: Gustatory assay with receptor-modified (Gr33a knockdown) flies; type: in vivo, fruit flies
T1 construct: endogenous in cells; host or cells: whole living fruit flies (behavioural gustatory assay)
T1 sequence (Q9VKA5 1-475): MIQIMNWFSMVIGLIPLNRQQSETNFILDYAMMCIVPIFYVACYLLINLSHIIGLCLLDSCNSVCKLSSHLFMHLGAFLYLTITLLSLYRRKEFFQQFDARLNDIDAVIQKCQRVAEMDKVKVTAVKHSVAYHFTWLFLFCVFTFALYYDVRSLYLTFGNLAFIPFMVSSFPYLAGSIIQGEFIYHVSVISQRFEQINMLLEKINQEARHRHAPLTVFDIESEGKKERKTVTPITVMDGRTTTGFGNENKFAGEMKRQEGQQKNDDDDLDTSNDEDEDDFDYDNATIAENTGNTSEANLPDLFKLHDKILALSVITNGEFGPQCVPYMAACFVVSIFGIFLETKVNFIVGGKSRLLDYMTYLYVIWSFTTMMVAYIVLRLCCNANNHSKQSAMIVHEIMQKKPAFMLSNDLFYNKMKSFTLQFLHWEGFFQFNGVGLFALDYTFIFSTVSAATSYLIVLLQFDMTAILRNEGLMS
Method: (§2) The neurophysiological mechanisms of repellency were analyzed using receptors that are essential for DEET detection, Or83b and Gr33a. […] These receptors also play a role in the repellency of the most promising of the present aromatic amide compounds.

Drosophila melanogaster [2] = assay: One-choice (single-trap) olfactory trap assay; type: in vivo; conditions: for repellency compared with DEET, one-choice trap assay: 25 μl of 25% by weight in DMSO on filter paper, 10% ACV attractant, 6 hours (FIG. 10) and 24 hours (FIG. 13); for fly death during the 6-hour screen: starved flies
Method: (§3) The D. melanogaster assays served as a model for SWD repellency. Forty different aromatic amides were studied at a 25% concentration by weight in DMSO, and the fruit fly chemosensory behaviors in response thereto were characterized. […]
(§4) Flies were monitored throughout their life cycle. Five-day-old flies (10 male and 10 females) were selected per assay, and starved for a predetermined length of time (e.g., 20 hours). After starvation, two different assays were used to study the olfactory related responses.
FIG. 7A is a diagram of a single-trap olfactory assay. Flies 105 were placed in a cylindrical chamber 100 containing a trap 110. The trap 110 was fashioned from an upturned 1.5 ml micro-centrifuge tube where the tapered end was trimmed away. A pipette tip 120 was cut to form a funnel and inserted into the bottom of the inverted micro-centrifuge tube 110. Then, filter paper 130 was placed between the pipette tip 120 and tip of micro-centrifuge tube 110. The pipette tip 120 was placed so that entering flies could not make physical contact with the filter paper 130. The filter paper 130 was placed in this manner so that when the filter paper 130 was treated with the repellent solution, the flies would only be able to smell at a distance and should be repelled even in the presence of an attractant.
A 25 μl sample of test compound at 25% concentration was applied to the filter paper 130 in order to provide the odor source. At the bottom of the trap 110, 125 μl of 10% apple cider vinegar (ACV) was placed as an attractant. Trials were conducted for 24 hours to visualize the number of flies 105 entering the trap 110. Typically, flies that entered the trap 110 contacted the liquid ACV and died in the ACV. Flies were counted and recorded at 4, 6, and 24 hours. No control other than DEET was used for this experiment, because it was a single trap, comparing the number of flies 105 repelled by the repellent versus the number of flies 105 interacting with the attractant (ACV).
as §1

Or83b = target: T2, Or83b (Drosophila melanogaster, UniProt Q9VNB5); assay: Olfactory assays with receptor-modified (Or83b knockdown) flies; type: in vivo, fruit flies; conditions: for effectiveness with receptor-modified flies, one-choice trap olfactory assay: compared with assays with unmodified flies; for Or83b and Gr33a requirement for detection of the compound: fruit flies; for Or83b and Gr33a requirement for detection of the compound / effectiveness as repellent with Or83b-modified flies above the knockdown temperature: olfactory assays; for effectiveness as repellent with Or83b-modified flies above the knockdown temperature: compared with unmodified flies
T2 construct: endogenous in cells; host or cells: whole living fruit flies (behavioural olfactory assays)
T2 sequence (Q9VNB5 1-486): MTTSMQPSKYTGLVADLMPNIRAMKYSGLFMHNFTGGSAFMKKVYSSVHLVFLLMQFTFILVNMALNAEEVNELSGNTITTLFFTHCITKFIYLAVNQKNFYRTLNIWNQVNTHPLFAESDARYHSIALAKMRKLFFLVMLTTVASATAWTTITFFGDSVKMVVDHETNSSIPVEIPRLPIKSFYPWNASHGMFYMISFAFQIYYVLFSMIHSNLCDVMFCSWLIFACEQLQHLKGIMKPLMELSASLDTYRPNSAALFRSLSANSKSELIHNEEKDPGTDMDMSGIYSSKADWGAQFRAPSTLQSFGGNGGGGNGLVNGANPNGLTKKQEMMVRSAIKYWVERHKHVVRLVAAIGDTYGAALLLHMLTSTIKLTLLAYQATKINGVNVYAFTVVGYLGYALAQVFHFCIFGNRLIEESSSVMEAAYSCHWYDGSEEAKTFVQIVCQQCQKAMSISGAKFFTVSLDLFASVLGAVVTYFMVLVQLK
Method: as §2

Drosophila melanogaster [3] = assay: Two-choice trap olfactory assay; type: in vivo; conditions: for trap preference (control trap versus repellent-treated trap): DMSO control vs 25 μl of 25% by weight in DMSO
Method: as §3, §4
FIG. 7B is a diagram of a 2-choice trap olfactory assay. Two ACV traps 110a-b were prepared as above, in a cylinder 150 from upturned 1.5 ml micro-centrifuge tubes with the tapered end trimmed away, and a pipette 120a-b inserted into the inverted micro-centrifuge tube. In the cylinder 150, one trap 110a was treated with 25 μl of DMSO (as a control) on the filter paper 135, and the other trap 110b with the 25 μl of the 25% by weight solution of the test compound in DMSO applied to the filter paper 130. 125 μl of 10% ACV, diluted with water, was placed in the bottom of the traps 110a-b. Both traps contained filter paper as prepared in the one-trap assay. All trials were screened for 24 hours, and the number of flies 105 in each trap was counted. Positions of the traps (i.e., left or right, relative to the location of the chamber 150 in the room) were randomized. The number of flies 105 in each trap 110a and 110b were counted and recorded at 4, 6 and 24 hours.
as §1

[4] = test system: odorant receptor CquiOR136; conditions: southern house mosquito; cited from earlier work
mosquito = mosquito repellent; cited from earlier work
[5] = one-choice trap, 25% concentration
[6] = one-choice trap, 25% concentration, 6 hours

SMILES	habituation of fruit flies, overall (olfactory and gustatory assays) (Drosophila melanogaster [1])	repellency after prior exposure, gustatory assay (Drosophila melanogaster [1])	preference for repellent-treated food source post-knockdown, gustatory assay (Gr33a)	repellency compared with DEET, one-choice trap assay (Drosophila melanogaster [2])	ranking among repellents in the one-choice assay (Drosophila melanogaster [2]; [5])	fly death during the 6-hour screen (Drosophila melanogaster [2]; [6])	effectiveness with receptor-modified flies, one-choice trap olfactory assay (Or83b)	Or83b and Gr33a requirement for detection of the compound (Or83b)	effectiveness as repellent with Or83b-modified flies above the knockdown temperature (Or83b)	preference of receptor-modified flies for the compound, olfactory assays (Or83b)	participation in choosing either trap (Drosophila melanogaster [3]; 25% by weight, 6 hours)	trap preference (control trap versus repellent-treated trap) (Drosophila melanogaster [3]; 6 hours)	other results
O=C(c1cccc(F)c1)N1CCCC1 [Compound 2mB, N-[m-fluorobenzoyl]pyrrolidine]	demonstrated habituation in at least one assay	significantly less repellency	increased preference	more effective than DEET	most effective repellents	no fly death	significantly less effective	required	significantly less effective	much higher preference	less overall participation	preference for the control trap	repellency after prior exposure, one-choice trap olfactory assay (Drosophila melanogaster [1]; prior exposure to 25% by weight repellent for 20 hours, compared with earlier assay): worse at repelling insects after prior exposure; effectiveness with receptor-modified flies, gustatory assay (Gr33a; compared with unmodified flies): significantly less effective; aversion (no flies entering the single-choice trap) (Drosophila melanogaster [2]; [5]): 100%; repellency (Drosophila melanogaster [2]; [6]): significant repellency; average number of flies that chose a trap in 6 hours (Drosophila melanogaster [3]; 25% by weight, 20 flies per assay, 6 hours): 4 flies
CN1CCN(C(=O)c2ccccc2F)CC1 [Compound 2oE, 1-methyl-4-[o-fluorobenzoyl]piperazine]	unable to habituate	statistically similar results	increased preference	more effective than DEET	most effective repellents	some fly death	less effective, but statistically similar	required	significantly less effective	much higher preference	less overall participation	preference for the control trap	fly mortality (Drosophila melanogaster [2]; one-choice trap, 25% concentration, exposure in the gas phase): relatively insignificant; interaction with control trap in comparison with repellent-treated trap (Drosophila melanogaster [3]; 25% by weight, low participation): more flies interacted with the control trap
CCN(CC)C(=O)c1cccc(C)c1 [DEET, N,N-diethyl-m-toluamide, reference compound]	demonstrated habituation in at least one assay	significantly less repellency											repellency after prior exposure, 2-choice olfactory assay (Drosophila melanogaster [1]; prior exposure to 25% by weight repellent (18-hour period as printed elsewhere in the source)): statistically similar; affinity for odorant receptor [4]: showing an affinity; duration of efficacy (mosquito): five
